Source: patent publication EP4729529A1, “PREPARATION OF PEPTIDE INHIBITOR OF INTERLEUKIN-23 RECEPTOR AND USE THEREOF” (Xizang Haisco Pharmaceutical Co., Ltd., priority 2023, dated 2024)
pIC50: −log10 of the molar value. Starred links: 1 amine or outer side, 2 acyl side, 3 side chain; linkers in the order of their positions; H or OH if unused. Positions of bridges follow the written chain, without caps; N, C: chain ends. Non-standard residues stand in square brackets, D forms with d. Residues, ends and D or L forms follow the SMILES beside them. Trp(7-cPr) = N[C@@H](Cc1c[nH]c2c(C3CC3)cccc12)C(=O)O; NH(CH2CH2O)4CH2CO = O=C(COCCOCCOCCOCCN[*:1])[*:2]; Trp(7-Me) = Cc1cccc2c(C[C@H](N)C(=O)O)c[nH]c12; 2Nal = N[C@@H](Cc1ccc2ccccc2c1)C(=O)O; AEF = NCCOc1ccc(C[C@H](N)C(=O)O)cc1; 3Pal = N[C@@H](Cc1cccnc1)C(=O)O; Cit = NC(=O)NCCC[C@H](N)C(=O)O; Pen = CC(C)(S)[C@H](N)C(=O)O; Thp = NC1(C(=O)O)CCOCC1; AEEA = NCCOCCOCC(=O)O; PEG1 = NCCOCCC(=O)O; Ahx = NCCCCCC(=O)O; Sar = CNCC(=O)O

How the values were obtained:
IL-23R = target: T1, IL-23R (Homo sapiens, UniProt Q5VWK5); assay: IL-23R reporter gene assay (HEK-blue IL23 reporter gene cell line, rhIL23 stimulation); format: cell-based; settings: Inhibition of IL-23R, rhIL23 1 ng/mL, 24 hours
T1 construct: host or cells: HEK-blue IL23 reporter gene cell line
T1 sequence (Q5VWK5 24-629): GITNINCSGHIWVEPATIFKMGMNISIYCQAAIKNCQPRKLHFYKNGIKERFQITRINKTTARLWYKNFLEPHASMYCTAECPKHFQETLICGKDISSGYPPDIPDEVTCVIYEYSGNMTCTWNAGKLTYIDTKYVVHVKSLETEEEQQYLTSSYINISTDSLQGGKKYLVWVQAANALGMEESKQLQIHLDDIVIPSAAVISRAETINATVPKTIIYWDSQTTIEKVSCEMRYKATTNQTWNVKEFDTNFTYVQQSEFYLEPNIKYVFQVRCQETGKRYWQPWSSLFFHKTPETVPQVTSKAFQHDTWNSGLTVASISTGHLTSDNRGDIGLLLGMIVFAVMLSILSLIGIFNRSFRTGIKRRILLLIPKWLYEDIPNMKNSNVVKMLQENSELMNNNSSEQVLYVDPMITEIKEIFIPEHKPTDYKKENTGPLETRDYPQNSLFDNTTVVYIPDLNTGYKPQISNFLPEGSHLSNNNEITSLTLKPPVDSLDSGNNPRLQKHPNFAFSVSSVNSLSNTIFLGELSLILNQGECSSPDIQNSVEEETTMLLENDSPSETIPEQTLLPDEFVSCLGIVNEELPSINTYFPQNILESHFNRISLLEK
Description: 2. IL-23R reporter gene assay
The purpose of this assay was to assess the ability of compounds to inhibit the binding of IL23p19 to IL23R in a reporter gene system. The HEK-blue IL23 reporter gene cell line (Invivogen, hkb-il23) was cultured in DMEM + 10% FBS + 100 ug/mL Normocin medium. When the cell density reached 80%-90%, 5000 cells/well were plated into a 384-well plate, and the plate was incubated overnight at 37°C with 5% CO2. Then, the compound stock solution was diluted in DMSO, and 40 nL of the dilution was transferred into the 384-well culture plate by Echo. The plate was incubated at 37°C with 5% CO2 for 0.5 hours. 40 nL/well of rhIL23 (R&D, 1290-IL) was added to the 384-well cell culture plate at a final concentration of 1 ng/mL, and the plate was incubated at 37°C with 5% CO2 for 24 hours. 18 µL of Quanti-Blue™ solution was added to a new 384-well plate. 2 µL/well of cell culture supernatant was transferred into the 384-well plate prepared in Step 6, and the plate was incubated at 37°C with 5% CO2 for 1 hour. Absorbance values at […] were read on BMG. The binding ability of the compounds was assessed using the following formula, and IC50 values were obtained by fitting with Graphpad.
Calculation formula of inhibition rate: [formula] • where Data negative: mean of DMSO control group; and • Data positive: mean of non-IL23-stimulated group
The calculation formula of IC50 was as follows: Y = Bottom + (Top−Bottom)/(1+10^(∧)((LogIC50−X)*HillSlope)) [formula] • where X: concentration of compound; and • Y: inhibition rate of compound Table 2. Inhibition of IL-23R by test compounds

IL-23α/IL-12β and IL-23R = target: T2, IL-23α/IL-12β and IL-23R (Homo sapiens, UniProt Q5VWK5); assay: IL-23α/IL-12β and IL-23R binding assay (TR-FRET/HTRF); settings: inhibition of the binding of IL-23α/IL-12β to IL-23R, TR-FRET; both proteins 0.3 nM
T2 construct: purchased ACRO ILR-H82F3 (IL-23R); ILB-H52W5 (IL-23α/IL-12β)
T2 sequence (Q5VWK5 24-353 limits assumed): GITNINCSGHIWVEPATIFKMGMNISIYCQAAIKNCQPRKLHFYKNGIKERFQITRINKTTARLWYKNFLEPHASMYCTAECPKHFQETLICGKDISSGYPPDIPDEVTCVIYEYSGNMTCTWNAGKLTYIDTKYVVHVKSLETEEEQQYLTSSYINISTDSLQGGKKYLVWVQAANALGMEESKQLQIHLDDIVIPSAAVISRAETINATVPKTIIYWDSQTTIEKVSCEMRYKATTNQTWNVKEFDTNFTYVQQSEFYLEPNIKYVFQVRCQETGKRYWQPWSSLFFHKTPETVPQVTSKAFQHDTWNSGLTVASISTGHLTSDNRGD
Description: 1. IL-23α/IL-12β and IL-23R binding assay
Compounds were tested for their inhibition on the binding of IL-23α/IL-12β to IL-23R by the TR-FRET method. Solutions of proteins IL-23α/IL-12β (ACRO, Cat# ILB-H52W5) and IL-23R (ACRO, Cat# ILR-H82F3) were prepared in reaction buffer PPI (PerkinElmer, Cat# 61DB10RDF). The final concentrations of IL-23α/IL-12β and IL-23R in the reaction mixture were both 0.3 nM. Positive reference Guselkumab was 3-fold diluted from an initial concentration of 30 nM, with 10 doses. 0.1 µL of the positive reference diluted in the reaction buffer was delivered to a 384-well plate (Grenier, Cat# 784075) by the acoustic liquid delivery technique (Echo 655), and the plate was centrifuged at 1000 rpm for 1 minute. 2.5 µL of IL-23α/IL-12β solution was transferred into the 384-well reaction plate, and the plate was centrifuged at 1000 rpm for 1 minute, and incubated at 25°C for 60 minutes. 2.5 µL of IL-23R solution was transferred into the 384-well reaction plate, and the plate was centrifuged at 1000 rpm for 1 minute. 5 µL of Streptavidin-Tb cryptate and Anti 6HIS-d2 detection mixture was transferred into the 384-well reaction plate, and the plate was centrifuged at 1000 rpm for 1 minute, and incubated at 25°C for 60 minutes. Finally, the HTRF signal (Ratio 665/620 nm) was read with a BMG high-throughput drug screening multifunctional microplate reader. IC50 values were obtained by nonlinear regression curve fitting using GraphPad Prism software.

Structure (SMILES): CC(=O)NCCCC[C@@H]1NC(=O)[C@H](Cc2c[nH]c3c(C)cccc23)NC(=O)[C@H]([C@@H](C)O)NC(=O)[C@H](Cc2c[nH]cn2)NC(=O)[C@H]2NC(=O)CCCCCNC(=O)CC[C@@H](C(=O)N[C@@H](CC(N)=O)C(=O)N[C@@H](Cc3cccnc3)C(=O)N(C)CC(N)=O)NC(=O)C3(CCOCC3)NC(=O)[C@H](Cc3ccc4ccccc4c3)NC(=O)[C@H](Cc3ccc(OCCN)cc3)NC(=O)[C@@H](NC1=O)C(C)(C)SSC2(C)C [Compound 11] ([Ahx][Pen]HT[Trp(7-Me)]K(Ac)[Pen][AEF][2Nal][Thp]EN[3Pal][Sar]-NH2; disulfide 2-7; lactam N-11)
- pIC50 (IL-23R): 8.13
- pIC50 (IL-23α/IL-12β and IL-23R): 9.91

Structure (SMILES): CC(=O)NCCCC[C@@H]1NC(=O)[C@H](Cc2c[nH]c3c(C)cccc23)NC(=O)[C@H]([C@@H](C)O)NC(=O)[C@H](CC(N)=O)NC(=O)[C@@H](NC(C)=O)C(C)(C)SSC(C)(C)[C@@H](C(=O)N[C@@H](Cc2ccc(OCCN)cc2)C(=O)N[C@@H](Cc2ccc3ccccc3c2)C(=O)NC2(C(=O)N[C@@H](CCC(=O)O)C(=O)N[C@@H](CC(N)=O)C(=O)N[C@@H](Cc3cccnc3)C(=O)N(C)CC(N)=O)CCS(=O)(=O)CC2)NC1=O [Compound 9]
- pIC50 (IL-23R): 8.59
- pIC50 (IL-23α/IL-12β and IL-23R): 10.25

Structure (SMILES): CC(=O)NCCCC[C@@H]1NC(=O)[C@H](Cc2c[nH]c3c(C)cccc23)NC(=O)[C@H]([C@@H](C)O)NC(=O)[C@H](Cc2c[nH]cn2)NC(=O)[C@H]2NC(=O)CCOCCNC(=O)CC[C@@H](C(=O)N[C@@H](CC(N)=O)C(=O)N[C@@H](Cc3cccnc3)C(=O)N(C)CC(N)=O)NC(=O)C3(CCOCC3)NC(=O)[C@H](Cc3ccc4ccccc4c3)NC(=O)[C@H](Cc3ccc(OCCN)cc3)NC(=O)[C@@H](NC1=O)C(C)(C)SSC2(C)C [Compound 28] ([PEG1][Pen]HT[Trp(7-Me)]K(Ac)[Pen][AEF][2Nal][Thp]EN[3Pal][Sar]-NH2; disulfide 2-7; lactam N-11)
- pIC50 (IL-23R): 8.20
- pIC50 (IL-23α/IL-12β and IL-23R): 9.91

Structure (SMILES): CC(=O)NCCCC[C@@H]1NC(=O)[C@H](Cc2c[nH]c3c(C)cccc23)NC(=O)[C@H]([C@@H](C)O)NC(=O)[C@H](Cc2c[nH]cn2)NC(=O)[C@H]2NC(=O)COCCOCCOCCOCCNC(=O)CC[C@@H](C(=O)N[C@@H](CC(N)=O)C(=O)N[C@@H](Cc3cccnc3)C(=O)N(C)CC(N)=O)NC(=O)C3(CCOCC3)NC(=O)[C@H](Cc3ccc4ccccc4c3)NC(=O)[C@H](Cc3ccc(OCCN)cc3)NC(=O)[C@@H](NC1=O)C(C)(C)SSC2(C)C [Compound 29] ([NH(CH2CH2O)4CH2CO][Pen]HT[Trp(7-Me)]K(Ac)[Pen][AEF][2Nal][Thp]EN[3Pal][Sar]-NH2; disulfide 2-7; lactam N-11)
- pIC50 (IL-23R): 8.76
- pIC50 (IL-23α/IL-12β and IL-23R): 10.05

Structure (SMILES): CC(=O)N[C@@H]1C(=O)N[C@@H](Cc2c[nH]cn2)C(=O)N[C@@H]([C@@H](C)O)C(=O)N[C@@H](Cc2c[nH]c3c(C4CC4)cccc23)C(=O)N[C@@H](CCCNC(N)=O)C(=O)N[C@H](C(=O)N[C@@H](Cc2ccc(OCCN)cc2)C(=O)N[C@@H](Cc2ccc3ccccc3c2)C(=O)NC2(C(=O)N[C@@H](CCC(=O)O)C(=O)N[C@@H](CC(N)=O)C(=O)N[C@@H](Cc3cccnc3)C(=O)N(C)CC(N)=O)CCOCC2)C(C)(C)SSC1(C)C [Compound 12] (Ac-[Pen]HT[Trp(7-cPr)][Cit][Pen][AEF][2Nal][Thp]EN[3Pal][Sar]-NH2; disulfide 1-6)
- pIC50 (IL-23R): 8.45
- pIC50 (IL-23α/IL-12β and IL-23R): 10.38

Structure (SMILES): CC(=O)NCCCC[C@@H]1NC(=O)[C@H](Cc2c[nH]c3c(C)cccc23)NC(=O)[C@H]([C@@H](C)O)NC(=O)[C@H](Cc2c[nH]cn2)NC(=O)[C@H]2NC(=O)COCCOCCNC(=O)CC[C@@H](C(=O)N[C@@H](CC(N)=O)C(=O)N[C@@H](Cc3cccnc3)C(=O)N(C)CC(N)=O)NC(=O)C3(CCOCC3)NC(=O)[C@H](Cc3ccc4ccccc4c3)NC(=O)[C@H](Cc3ccc(OCCN)cc3)NC(=O)[C@@H](NC1=O)C(C)(C)SSC2(C)C [Compound 27] ([AEEA][Pen]HT[Trp(7-Me)]K(Ac)[Pen][AEF][2Nal][Thp]EN[3Pal][Sar]-NH2; disulfide 2-7; lactam N-11)
- pIC50 (IL-23R): 8.86
- pIC50 (IL-23α/IL-12β and IL-23R): 9.94
